Test results: ChEMBL document CHEMBL1151757, “Synthesis, radiosynthesis, and biological evaluation of fluorine-18-labeled 2beta-carbo(fluoroalkoxy)-3beta-(3'-((Z)-2-haloethenyl)phenyl)nortropanes: candidate radioligands for in vivo imaging of the serotonin transporter with positron emission tomography” (J Med Chem, 2008)

Tests used:
[1] = Ratio of drug uptake in pons to cerebellum in anesthetized cynomolgus monkey after 18.5 mins postinjection; format: ADME, organism-based, Macaca fascicularis; details: in vivo
[2] = Ratio of drug uptake in pons to cerebellum in anesthetized cynomolgus monkey after 125 mins postinjection; format: ADME, organism-based, Macaca fascicularis; details: in vivo
[3] = Ratio of drug uptake in pons to cerebellum in anesthetized cynomolgus monkey after 175 mins postinjection; format: ADME, organism-based, Macaca fascicularis; details: in vivo
[4] = Ratio of drug uptake in pons to cerebellum in anesthetized cynomolgus monkey after 185 mins postinjection; format: ADME, organism-based, Macaca fascicularis; details: in vivo
[5] = Ratio of drug uptake in medulla to cerebellum in anesthetized cynomolgus monkey after 95 mins postinjection; format: ADME, organism-based, Macaca fascicularis; details: in vivo
[6] = Ratio of drug uptake in medulla to cerebellum in anesthetized cynomolgus monkey after 155 mins postinjection; format: ADME, organism-based, Macaca fascicularis; details: in vivo
[7] = Drug uptake in anesthetized cynomolgus monkey brain occipital lobe after 6.5 mins postinjection; format: ADME, organism-based, Macaca fascicularis; design: unit not given here; details: in vivo
[8] = Drug uptake in anesthetized cynomolgus monkey brain frontal lobe after 45 mins postinjection; format: ADME, organism-based, Macaca fascicularis; details: in vivo, 0.75 h
[9] = Ratio of drug uptake in midbrain to cerebellum in anesthetized cynomolgus monkey after 225 mins postinjection; format: ADME, organism-based, Macaca fascicularis; details: in vivo, 3.75 h
[10] = Ratio of drug uptake in midbrain to cerebellum in anesthetized cynomolgus monkey after 235 mins postinjection; format: ADME, organism-based, Macaca fascicularis; details: in vivo
[11] = Ratio of drug uptake in pons to cerebellum in anesthetized cynomolgus monkey after 6.5 mins postinjection; format: ADME, organism-based, Macaca fascicularis; details: in vivo
[12] = Ratio of drug uptake in occipital lobe to cerebellum in anesthetized cynomolgus monkey after 135 mins postinjection; format: ADME, organism-based, Macaca fascicularis; details: in vivo, 2.25 h
Putamen [13] = test: Drug uptake in anesthetized cynomolgus monkey brain putamen after 125 mins postinjection; format: ADME, organism-based, Macaca fascicularis; details: in vivo
Putamen [14] = test: Drug uptake in anesthetized cynomolgus monkey brain putamen after 215 mins postinjection; format: ADME, organism-based, Macaca fascicularis; details: in vivo
Putamen [15] = test: Drug uptake in anesthetized cynomolgus monkey brain putamen after 225 mins postinjection; format: ADME, organism-based, Macaca fascicularis; details: in vivo, 3.75 h
[16] = Ratio of drug uptake in occipital lobe to cerebellum in anesthetized cynomolgus monkey after 235 mins postinjection; format: ADME, organism-based, Macaca fascicularis; details: in vivo
[17] = Ratio of drug uptake in frontal lobe to cerebellum in anesthetized cynomolgus monkey after 75 mins postinjection; format: ADME, organism-based, Macaca fascicularis; details: in vivo, 1.25 h
Midbrain [18] = test: Drug uptake in anesthetized cynomolgus monkey brain midbrain after 135 mins postinjection; format: ADME, organism-based, Macaca fascicularis; details: in vivo, 2.25 h
Midbrain [19] = test: Drug uptake in anesthetized cynomolgus monkey brain midbrain after 235 mins postinjection; format: ADME, organism-based, Macaca fascicularis; details: in vivo
Pons [20] = test: Drug uptake in anesthetized cynomolgus monkey brain pons after 12.5 mins postinjection; format: ADME, organism-based, Macaca fascicularis; details: in vivo
Pons [21] = test: Drug uptake in anesthetized cynomolgus monkey brain pons after 15.5 mins postinjection; format: ADME, organism-based, Macaca fascicularis; details: in vivo
Pons [22] = test: Drug uptake in anesthetized cynomolgus monkey brain pons after 185 mins postinjection; format: ADME, organism-based, Macaca fascicularis; details: in vivo
[23] = Drug uptake in anesthetized cynomolgus monkey brain occipital lobe after 205 mins postinjection; format: ADME, organism-based, Macaca fascicularis; details: in vivo
[24] = Drug uptake in anesthetized cynomolgus monkey brain frontal lobe after 195 mins postinjection; format: ADME, organism-based, Macaca fascicularis; details: in vivo, 3.25 h
Caudate [25] = test: Drug uptake in anesthetized cynomolgus monkey brain caudate after 185 mins postinjection; format: ADME, organism-based, Macaca fascicularis, Caudate nucleus; details: in vivo
Caudate [26] = test: Drug uptake in anesthetized cynomolgus monkey brain caudate after 195 mins postinjection; format: ADME, organism-based, Macaca fascicularis, Caudate nucleus; details: in vivo, 3.25 h
Caudate [27] = test: Drug uptake in anesthetized cynomolgus monkey brain caudate after 205 mins postinjection; format: ADME, organism-based, Macaca fascicularis, Caudate nucleus; details: in vivo
Putamen [28] = test: Drug uptake in anesthetized cynomolgus monkey brain putamen after 205 mins postinjection; format: ADME, organism-based, Macaca fascicularis; details: in vivo
Pons [29] = test: Drug uptake in anesthetized cynomolgus monkey brain pons after 115 mins postinjection; format: ADME, organism-based, Macaca fascicularis; details: in vivo
Pons [30] = test: Drug uptake in anesthetized cynomolgus monkey brain pons after 135 mins postinjection; format: ADME, organism-based, Macaca fascicularis; details: in vivo, 2.25 h
Medulla [31] = test: Drug uptake in anesthetized cynomolgus monkey brain medulla after 0.5 mins postinjection; format: ADME, organism-based, Macaca fascicularis; details: in vivo
Medulla [32] = test: Drug uptake in anesthetized cynomolgus monkey brain medulla after 6.5 mins postinjection; format: ADME, organism-based, Macaca fascicularis; details: in vivo
Medulla [33] = test: Drug uptake in anesthetized cynomolgus monkey brain medulla after 65 mins postinjection; format: ADME, organism-based, Macaca fascicularis; details: in vivo
[34] = Ratio of drug uptake in putamen to cerebellum in anesthetized cynomolgus monkey after 45 mins postinjection; format: ADME, organism-based, Macaca fascicularis; details: in vivo, 0.75 h
[35] = Drug uptake in anesthetized cynomolgus monkey brain cerebellum after 95 mins postinjection; format: ADME, organism-based, Macaca fascicularis; details: in vivo
[36] = Drug uptake in anesthetized cynomolgus monkey brain cerebellum after 175 mins postinjection; format: ADME, organism-based, Macaca fascicularis; details: in vivo
[37] = Ratio of drug uptake in putamen to cerebellum in anesthetized cynomolgus monkey after 235 mins postinjection; format: ADME, organism-based, Macaca fascicularis; details: in vivo
[38] = Ratio of drug uptake in thalamus to cerebellum in anesthetized cynomolgus monkey after 9.5 mins postinjection; format: ADME, organism-based, Macaca fascicularis; details: in vivo
Caudate [39] = test: Drug uptake in anesthetized cynomolgus monkey brain caudate after 4.5 mins postinjection; format: ADME, organism-based, Macaca fascicularis, Caudate nucleus; details: in vivo, 0.075 h
Caudate [40] = test: Drug uptake in anesthetized cynomolgus monkey brain caudate after 175 mins postinjection; format: ADME, organism-based, Macaca fascicularis, Caudate nucleus; details: in vivo
[41] = Ratio of drug uptake in occipital lobe to cerebellum in anesthetized cynomolgus monkey after 4.5 mins postinjection; format: ADME, organism-based, Macaca fascicularis; details: in vivo, 0.075 h
[42] = Ratio of drug uptake in occipital lobe to cerebellum in anesthetized cynomolgus monkey after 18.5 mins postinjection; format: ADME, organism-based, Macaca fascicularis; details: in vivo
Thalamus [43] = test: Drug uptake in anesthetized cynomolgus monkey brain thalamus after 2.5 mins postinjection; format: ADME, organism-based, Macaca fascicularis; design: unit not given here; details: in vivo
Putamen [44] = test: Drug uptake in anesthetized cynomolgus monkey brain putamen after 4.5 mins postinjection; format: ADME, organism-based, Macaca fascicularis; design: unit not given here; details: in vivo, 0.075 h
Thalamus [45] = test: Drug uptake in anesthetized cynomolgus monkey brain thalamus after 145 mins postinjection; format: ADME, organism-based, Macaca fascicularis; design: unit not given here; details: in vivo
Thalamus [46] = test: Drug uptake in anesthetized cynomolgus monkey brain thalamus after 165 mins postinjection; format: ADME, organism-based, Macaca fascicularis; design: unit not given here; details: in vivo, 2.75 h
Midbrain [47] = test: Drug uptake in anesthetized cynomolgus monkey brain midbrain after 18.5 mins postinjection; format: ADME, organism-based, Macaca fascicularis; design: unit not given here; details: in vivo
Midbrain [48] = test: Drug uptake in anesthetized cynomolgus monkey brain midbrain after 22.5 mins postinjection; format: ADME, organism-based, Macaca fascicularis; design: unit not given here; details: in vivo, 0.375 h
[49] = Ratio of drug uptake in midbrain to cerebellum in anesthetized cynomolgus monkey after 2.5 mins postinjection; format: ADME, organism-based, Macaca fascicularis; details: in vivo
[50] = Ratio of drug uptake in midbrain to cerebellum in anesthetized cynomolgus monkey after 125 mins postinjection; format: ADME, organism-based, Macaca fascicularis; details: in vivo
[51] = Ratio of drug uptake in pons to cerebellum in anesthetized cynomolgus monkey after 225 mins postinjection; format: ADME, organism-based, Macaca fascicularis; details: in vivo, 3.75 h
[52] = Ratio of drug uptake in medulla to cerebellum in anesthetized cynomolgus monkey after 12.5 mins postinjection; format: ADME, organism-based, Macaca fascicularis; details: in vivo
Putamen [53] = test: Drug uptake in anesthetized cynomolgus monkey brain putamen after 155 mins postinjection; format: ADME, organism-based, Macaca fascicularis; details: in vivo
Medulla [54] = test: Drug uptake in anesthetized cynomolgus monkey brain medulla after 35 mins postinjection; format: ADME, organism-based, Macaca fascicularis; details: in vivo
[55] = Ratio of drug uptake in putamen to cerebellum in anesthetized cynomolgus monkey after 165 mins postinjection; format: ADME, organism-based, Macaca fascicularis; details: in vivo, 2.75 h
[56] = Ratio of drug uptake in midbrain to cerebellum in anesthetized cynomolgus monkey after 27.5 mins postinjection; format: ADME, organism-based, Macaca fascicularis; details: in vivo

For O=C(OCC[18F])C1C2CCC(CC1c1ccc(/C=C\I)cc1)N2 (stereo not given), the Ratio [1] was 0.9, the Ratio [2] was 2.1 and the Ratio [3] was 2.7. The Ratio [4] was 2.6, the Ratio [5] was 1.8 and the Ratio [6] was 2.5. The Drug uptake [7] was 1.21, the Drug uptake [8] was 1.95 and the Ratio [9] was 4.2. It also gave a Ratio [10] of 4.4, a Ratio [11] of 0.8 and a Ratio [12] of 1.3. It also gave a Drug uptake (Putamen [13]) of 4.34, a Drug uptake (Putamen [14]) of 3.93 and a Drug uptake (Putamen [15]) of 3.79. The Ratio [16] was 1.6, the Ratio [17] was 0.9 and the Drug uptake (Midbrain [18]) was 4.7. The Drug uptake (Midbrain [19]) was 4.44, the Drug uptake (Pons [20]) was 1.88 and the Drug uptake (Pons [21]) was 2.14. For the same compound, the Drug uptake (Pons [22]) was 3.44, the Drug uptake [23] was 1.73 and the Drug uptake [24] was 1.7. The Drug uptake (Caudate [25]) was 2.97, the Drug uptake (Caudate [26]) was 2.85 and the Drug uptake (Caudate [27]) was 2.77. It also gave a Drug uptake (Putamen [28]) of 3.94, a Drug uptake (Pons [29]) of 3.65 and a Drug uptake (Pons [30]) of 3.6. For the same compound, the Drug uptake (Medulla [31]) was 0, the Drug uptake (Medulla [32]) was 2.02 and the Drug uptake (Medulla [33]) was 3.75. It also gave a Ratio [34] of 1.4, a Drug uptake [35] of 2.14 and a Drug uptake [36] of 1.3. The Ratio [37] was 3.8, the Ratio [38] was 1 and the Drug uptake (Caudate [39]) was 0.78. The Drug uptake (Caudate [40]) was 3, the Ratio [41] was 0.8 and the Ratio [42] was 0.7. The Drug uptake (Thalamus [43]) was 0.4, the Drug uptake (Putamen [44]) was 1.18 and the Drug uptake (Thalamus [45]) was 3.98. For the same compound, the Drug uptake (Thalamus [46]) was 3.88, the Drug uptake (Midbrain [47]) was 2.78 and the Drug uptake (Midbrain [48]) was 3.04. For the same compound, the Ratio [49] was 0.9 and the Ratio [50] was 2.7.

With O=C(OCC[18F])C1C2CCC(CC1c1cccc(/C=C\I)c1)N2 (stereo not given) the Ratio [1] was 0.7, the Ratio [51] was 1.6 and the Ratio [52] was 0.9. The Drug uptake [7] was 2, the Drug uptake [8] was 2.95 and the Drug uptake (Putamen [13]) was 3.58. For the same compound, the Drug uptake (Putamen [53]) was 3.13, the Drug uptake (Putamen [14]) was 2.53 and the Drug uptake (Putamen [15]) was 2.44. It also gave a Ratio [16] of 0.9, a Ratio [17] of 0.9 and a Drug uptake (Midbrain [18]) of 3.97. For the same compound, the Drug uptake (Midbrain [19]) was 2.94, the Drug uptake (Pons [20]) was 2.58 and the Drug uptake (Pons [21]) was 2.82. The Drug uptake (Pons [29]) was 2.86, the Drug uptake (Pons [30]) was 2.65 and the Drug uptake (Medulla [31]) was 0. For the same compound, the Drug uptake (Medulla [32]) was 2.75, the Drug uptake (Medulla [54]) was 4.05 and the Drug uptake (Medulla [33]) was 3.97. It also gave a Ratio [34] of 1.2, a Ratio [55] of 1.8 and a Drug uptake [35] of 2.61. It also gave a Drug uptake [36] of 1.57, a Ratio [37] of 1.8 and a Ratio [38] of 0.9. It also gave a Drug uptake (Caudate [39]) of 1.23, a Drug uptake (Caudate [40]) of 2.43 and a Ratio [41] of 0.6. The Ratio [42] was 0.7, the Drug uptake (Thalamus [43]) was 0.43 and the Drug uptake (Putamen [44]) was 1.53. For the same compound, the Drug uptake (Thalamus [45]) was 3.16, the Drug uptake (Thalamus [46]) was 2.91 and the Drug uptake (Midbrain [47]) was 4.37. It also gave a Drug uptake (Midbrain [48]) of 4.56, a Ratio [49] of 1.2 and a Ratio [56] of 1.1. It also gave a Ratio [50] of 2.
